Measured values reported in PubChem BioAssay AID256 (DTP/NCI, 2004).
Several values for one entry are separate records, joined by “and”; a condition that tells them apart may be missing. Equal entries are not always repeated. Inconclusive results and toxic doses are left out. Rule for the calls: active = survival T/C of 150% or more; inactive = T/C below 125% in these data.

System: CD2F1 mice, L1210 leukemia ip, survival T/C
Assay: NCI In Vivo Anticancer Drug Screen. Data for tumor model L1210 Leukemia (intraperitoneal) in CD2F1 (CDF1) mice
Settings: higher = longer survival
Summary of the method: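 Transplantable tumor in mice; compound-treated vs vehicle-treated groups. Read-out = treated/control ratio of the measured endpoint.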

[1] = endpoint: mean survival time, dose: 100.0 mg/kg/injection, schedule: Q04DX003 (ip), vehicle: saline with Tween-80
[2] = endpoint: mean survival time, dose: 200.0 mg/kg/injection, schedule: Q04DX003 (ip), vehicle: saline with Tween-80
[3] = endpoint: mean survival time, dose: 100.0 mg/kg/injection, schedule: Q04DX002 (ip), vehicle: saline with Tween-80
[4] = endpoint: mean survival time, dose: 200.0 mg/kg/injection, schedule: Q04DX002 (ip), vehicle: saline with Tween-80
[5] = endpoint: mean survival time, dose: 400.0 mg/kg/injection, schedule: Q04DX002 (ip), vehicle: saline with Tween-80

Measured: T/C

O=C/C=C/C=C/C=C/c1ccccc1
inactive: endpoint: mean survival time, dose: 62.5 mg/kg/injection, schedule: Q01DX001 (ip), vehicle: distilled water + alcohol 93 % of control | endpoint: mean survival time, dose: 125.0 mg/kg/injection, schedule: Q01DX001 (ip), vehicle: distilled water + alcohol 96 % of control | endpoint: mean survival time, dose: 250.0 mg/kg/injection, schedule: Q01DX001 (ip), vehicle: distilled water + alcohol 92 % of control | endpoint: mean survival time, dose: 500.0 mg/kg/injection, schedule: Q01DX001 (ip), vehicle: distilled water + alcohol 90 % of control | endpoint: median survival time, dose: 50.0 mg/kg/injection, schedule: Q01DX009 (ip), vehicle: saline 98 % of control | endpoint: median survival time, dose: 100.0 mg/kg/injection, schedule: Q01DX009 (ip), vehicle: saline 106 % of control | endpoint: median survival time, dose: 200.0 mg/kg/injection, schedule: Q01DX009 (ip), vehicle: saline 100 % of control | endpoint: median survival time, dose: 400.0 mg/kg/injection, schedule: Q01DX009 (ip), vehicle: saline 101 % of control | endpoint: median survival time, dose: 800.0 mg/kg/injection, schedule: Q01DX009 (ip), vehicle: saline 100 % of control

ClC1(Cl)Cc2ccccc21
inactive: endpoint: mean survival time, dose: 266.0 mg/kg/injection, schedule: Q04DX003 (ip), vehicle: saline sonified 96 % of control | endpoint: mean survival time, dose: 400.0 mg/kg/injection, schedule: Q04DX003 (ip), vehicle: saline sonified 88 % of control | endpoint: mean survival time, dose: 600.0 mg/kg/injection, schedule: Q04DX003 (ip), vehicle: saline sonified 100 % of control | endpoint: median survival time, dose: 50.0 mg/kg/injection, schedule: Q01DX005 (ip), vehicle: saline with Tween-80 102 % of control | endpoint: median survival time, dose: 100.0 mg/kg/injection, schedule: Q01DX005 (ip), vehicle: saline with Tween-80 113 % of control | endpoint: median survival time, dose: 200.0 mg/kg/injection, schedule: Q01DX005 (ip), vehicle: saline with Tween-80 102 % of control

Nc1nc(OCc2ccccc2)ncc1C(=O)NCC(=O)O
inactive: endpoint: mean survival time, dose: 12.5 mg/kg/injection, schedule: Q01DX009 (ip), vehicle: saline with Tween-80 105 % of control | endpoint: mean survival time, dose: 25.0 mg/kg/injection, schedule: Q01DX009 (ip), vehicle: saline with Tween-80 100 % of control | endpoint: mean survival time, dose: 50.0 mg/kg/injection, schedule: Q01DX009 (ip), vehicle: saline with Tween-80 104 % of control

COc1ccc(C(=O)c2ncccc2C)cc1OC
inactive: endpoint: mean survival time, dose: 12.5 mg/kg/injection, schedule: Q01DX009 (ip), vehicle: water 94 % of control | endpoint: mean survival time, dose: 25.0 mg/kg/injection, schedule: Q01DX009 (ip), vehicle: water 95 % of control | endpoint: mean survival time, dose: 50.0 mg/kg/injection, schedule: Q01DX009 (ip), vehicle: water 94 % of control | endpoint: mean survival time, dose: 100.0 mg/kg/injection, schedule: Q01DX009 (ip), vehicle: water 94 % of control | endpoint: mean survival time, dose: 200.0 mg/kg/injection, schedule: Q01DX009 (ip), vehicle: water 88 % of control

O=c1c(Cl)c(Cl)cnn1-c1ccc([N+](=O)[O-])cc1[N+](=O)[O-]
inactive: endpoint: mean survival time, dose: 100.0 mg/kg/injection, schedule: Q01DX001 (ip), vehicle: other 88 % of control | endpoint: mean survival time, dose: 200.0 mg/kg/injection, schedule: Q01DX001 (ip), vehicle: other 88 % of control | endpoint: mean survival time, dose: 400.0 mg/kg/injection, schedule: Q01DX001 (ip), vehicle: other 94 % of control

N#Cc1nccnc1Cl
inactive: [1] 96 % of control | [2] 86 % of control

CCCCCCCCCCSCC
inactive: endpoint: mean survival time, dose: 100.0 mg/kg/injection, schedule: Q01DX009 (ip), vehicle: saline 101 % of control | endpoint: mean survival time, dose: 100.0 mg/kg/injection, schedule: Q04DX003 (ip), vehicle: saline 103 % of control | endpoint: mean survival time, dose: 200.0 mg/kg/injection, schedule: Q01DX009 (ip), vehicle: saline 104 % of control | endpoint: mean survival time, dose: 200.0 mg/kg/injection, schedule: Q04DX003 (ip), vehicle: saline 103 % of control | endpoint: mean survival time, dose: 400.0 mg/kg/injection, schedule: Q01DX009 (ip), vehicle: saline 101 % of control | endpoint: mean survival time, dose: 400.0 mg/kg/injection, schedule: Q04DX003 (ip), vehicle: saline 103 % of control

C=CCOc1cc2c(cc1C(C)c1ccc(OC)cc1)OCO2 (stereo not given)
inactive: endpoint: median survival time, dose: 25.0 mg/kg/injection, schedule: Q01DX009 (ip), vehicle: Klucel (hydroxypropylcellulose) (HPC) 100 % of control and 103 % of control | endpoint: median survival time, dose: 50.0 mg/kg/injection, schedule: Q01DX005 (ip), vehicle: Klucel (hydroxypropylcellulose) (HPC) 94 % of control | endpoint: median survival time, dose: 50.0 mg/kg/injection, schedule: Q01DX009 (ip), vehicle: Klucel (hydroxypropylcellulose) (HPC) 120 % of control and 101 % of control and 104 % of control | endpoint: median survival time, dose: 50.0 mg/kg/injection, schedule: Q01DX009 (ip), vehicle: saline with Tween-80 105 % of control | endpoint: median survival time, dose: 100.0 mg/kg/injection, schedule: Q01DX005 (ip), vehicle: Klucel (hydroxypropylcellulose) (HPC) 103 % of control | endpoint: median survival time, dose: 100.0 mg/kg/injection, schedule: Q01DX009 (ip), vehicle: Klucel (hydroxypropylcellulose) (HPC) 105 % of control and 110 % of control | endpoint: median survival time, dose: 100.0 mg/kg/injection, schedule: Q01DX009 (ip), vehicle: saline with Tween-80 107 % of control | endpoint: median survival time, dose: 200.0 mg/kg/injection, schedule: Q01DX005 (ip), vehicle: Klucel (hydroxypropylcellulose) (HPC) 108 % of control | endpoint: median survival time, dose: 400.0 mg/kg/injection, schedule: Q01DX005 (ip), vehicle: Klucel (hydroxypropylcellulose) (HPC) 118 % of control | endpoint: median survival time, dose: 400.0 mg/kg/injection, schedule: Q01DX009 (ip), vehicle: saline with Tween-80 124 % of control | endpoint: median survival time, dose: 800.0 mg/kg/injection, schedule: Q01DX005 (ip), vehicle: Klucel (hydroxypropylcellulose) (HPC) 95 % of control | endpoint: median survival time, dose: 800.0 mg/kg/injection, schedule: Q01DX009 (ip), vehicle: saline with Tween-80 98 % of control

CN(C)C(=S)Oc1ccc2ccc3ccccc3c2c1
inactive: [3] 96 % of control | [4] 89 % of control | [5] 104 % of control

NC(=S)S
inactive: [3] 102 % of control | [4] 113 % of control | [5] 102 % of control

CCCC(C)(C)O
inactive: [1] 104 % of control | [2] 107 % of control | endpoint: mean survival time, dose: 400.0 mg/kg/injection, schedule: Q04DX003 (ip), vehicle: saline with Tween-80 101 % of control
